Laboratory results: patent US11149031B2, “Substituted N-(3-fluoropropyl)-pyrrolidine compounds, processes for their preparation and therapeutic uses thereof” (SANOFI, priority 2016, dated 2021)

How the values were obtained:
[1] = molecular target: His6-ERα298-554 Y537S mutant (ERα ligand-binding domain) (Homo sapiens (Human), UniProt P03372, Y537S); experiment: Test A: biochemical antagonist activity, LanthaScreen TR-FRET ERα coactivator assay, Y537S mutant; details: protocol with 3 nM estradiol; read-out: Antagonism Y537S IC50
Summary of the method: (§1)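 His6-ERα LBD (aa 298–554), 0.5 nM, with Tb-anti-His6 antibody, 250 nM PGC1a peptide and 3 nM (or 10 nM) estradiol in pH 7.4 potassium phosphate/DTT buffer; incubated with compound overnight at room temperature. IC50 from 4-parameter logistic fit of TR-FRET 520:495 nm ratio.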

[2] = molecular target: His6-ERα298-554 D538G mutant (ERα ligand-binding domain) (Homo sapiens (Human), UniProt P03372, D538G); experiment: Test A: biochemical antagonist activity, LanthaScreen TR-FRET ERα coactivator assay, D538G mutant; details: protocol with 3 nM estradiol; read-out: Antagonism D538G IC50
Summary of the method: as §1

ERα in MCF7 cells = ERα in MCF7 cells (Homo sapiens (Human), UniProt P03372); experiment: Test C: estrogen receptor degradation activity, ERα in cell western assay in MCF7 cells; format: cell-based; details: for DC50: 4 hours post compound addition, ERα in cell western, read-out: Degradation IC50; for % Degradation at 3 μM: 4 hours, relative to fulvestrant
Summary of the method: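 MCF7 cells in phenol-red-free medium with 5% charcoal-stripped FBS received compound (9-point 1:5, 3-0.000018 μM) for 4 h, then were fixed. ERα immunostained (Alexa 488) and normalised to DNA (Syto-64), read as integrated fluorescence on an Acumen scanner.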

[3] = molecular target: His6-ERα298-554 WT (ERα ligand-binding domain) (Homo sapiens (Human), UniProt P03372); experiment: Test A: biochemical antagonist activity, LanthaScreen TR-FRET ERα coactivator assay, WT; details: protocol with 3 nM estradiol; read-out: Antagonism WT IC50
Summary of the method: as §1

Sequence of His6-ERα298-554 WT (ERα ligand-binding domain) (P03372 298-554): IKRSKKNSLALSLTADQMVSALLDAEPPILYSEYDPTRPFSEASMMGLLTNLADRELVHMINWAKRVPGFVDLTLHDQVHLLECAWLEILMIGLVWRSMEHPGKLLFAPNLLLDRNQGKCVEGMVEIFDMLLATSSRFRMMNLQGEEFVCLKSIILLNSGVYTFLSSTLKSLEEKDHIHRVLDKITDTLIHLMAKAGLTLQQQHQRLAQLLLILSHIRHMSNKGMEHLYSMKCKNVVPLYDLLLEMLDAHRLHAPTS
Sequence of His6-ERα298-554 Y537S mutant (ERα ligand-binding domain) (P03372 298-554 Y537S): as the sequence (P03372 298-554) above, with Y240S counted along it
Sequence of His6-ERα298-554 D538G mutant (ERα ligand-binding domain) (P03372 298-554 D538G): as the sequence (P03372 298-554) above, with D241G counted along it
Sequence of ERα in MCF7 cells (P03372 whole entry): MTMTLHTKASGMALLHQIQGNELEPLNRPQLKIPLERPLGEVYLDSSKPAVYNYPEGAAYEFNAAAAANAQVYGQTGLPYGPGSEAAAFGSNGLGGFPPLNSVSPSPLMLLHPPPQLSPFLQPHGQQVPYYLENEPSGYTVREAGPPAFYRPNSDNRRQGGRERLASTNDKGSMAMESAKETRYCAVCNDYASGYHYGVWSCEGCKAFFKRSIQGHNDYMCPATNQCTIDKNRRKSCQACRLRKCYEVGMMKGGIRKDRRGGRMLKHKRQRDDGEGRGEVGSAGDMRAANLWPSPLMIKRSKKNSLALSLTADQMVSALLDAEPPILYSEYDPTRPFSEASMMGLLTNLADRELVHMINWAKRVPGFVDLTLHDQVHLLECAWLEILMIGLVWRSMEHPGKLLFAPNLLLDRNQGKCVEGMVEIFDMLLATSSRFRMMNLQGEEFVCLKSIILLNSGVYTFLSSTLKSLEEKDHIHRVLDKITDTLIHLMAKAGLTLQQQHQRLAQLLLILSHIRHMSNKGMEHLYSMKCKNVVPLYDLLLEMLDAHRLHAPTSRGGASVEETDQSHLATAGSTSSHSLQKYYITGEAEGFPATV

SMILES: Oc1cccc(C2=C(c3ccc(O[C@H]4CCN(CCCF)C4)cc3)c3ccc(O)cc3SCC2)c1 [Example 158, 5-[4-[(3S)-1-(3-fluoropropyl)pyrrolidin-3-yl]oxyphenyl]-4-(3-hydroxyphenyl)-2,3-dihydro-1-benzothiepin-8-ol]
- IC50 [1]: 3 nM
- IC50 [2]: 4 nM
- DC50 (ERα in MCF7 cells): 0.2 nM
- % Degradation at 3 μM (ERα in MCF7 cells): 88%
- IC50 [3]: 1 nM

SMILES: Oc1ccc2c(c1)SCCC(c1ccc(F)cc1Cl)=C2c1ccc(O[C@H]2CCN(CCCF)C2)cc1 [Example 159, 4-(2-chloro-4-fluoro-phenyl)-5-[4-[(3S)-1-(3-fluoropropyl)pyrrolidin-3-yl]oxyphenyl]-2,3-dihydro-1-benzothiepin-8-ol]
- IC50 [1]: 10 nM
- IC50 [2]: 17 nM
- DC50 (ERα in MCF7 cells): 0.5 nM
- % Degradation at 3 μM (ERα in MCF7 cells): 89%
- IC50 [3]: 3 nM

SMILES: Oc1ccc2c(c1)SCCC(c1ccc3[nH]ccc3c1)=C2c1ccc(O[C@H]2CCN(CCCF)C2)cc1 [Example 160, 5-[4-[(3S)-1-(3-fluoropropyl)pyrrolidin-3-yl]oxyphenyl]-4-(1H-indol-5-yl)-2,3-dihydro-1-benzothiepin-8-ol]
- IC50 [1]: 8 nM
- IC50 [2]: 13 nM
- DC50 (ERα in MCF7 cells): 0.2 nM
- % Degradation at 3 μM (ERα in MCF7 cells): 75%
- IC50 [3]: 3 nM

SMILES: Oc1ccc2c(c1)SCCC(c1ccc(Cl)c(F)c1)=C2c1ccc(O[C@H]2CCN(CCCF)C2)cc1 [Example 161, 4-(4-chloro-3-fluoro-phenyl)-5-[4-[(3S)-1-(3-fluoropropyl)pyrrolidin-3-yl]oxyphenyl]-2,3-dihydro-1-benzothiepin-8-ol]
- IC50 [1]: 22 nM
- IC50 [2]: 31 nM
- DC50 (ERα in MCF7 cells): 0.7 nM
- % Degradation at 3 μM (ERα in MCF7 cells): 93%
- IC50 [3]: 6 nM

SMILES: Cc1c(Cl)cccc1C1=C(c2ccc(O[C@H]3CCN(CCCF)C3)cc2)c2ccc(O)cc2SCC1 [Example 163, 4-(3-chloro-2-methyl-phenyl)-5-[4-[(3S)-1-(3-fluoropropyl)pyrrolidin-3-yl]oxyphenyl]-2,3-dihydro-1-benzothiepin-8-ol]
- IC50 [1]: 19 nM
- IC50 [2]: 24 nM
- DC50 (ERα in MCF7 cells): 0.6 nM
- % Degradation at 3 μM (ERα in MCF7 cells): 94%
- IC50 [3]: 5 nM

SMILES: Cc1cc(F)ccc1C1=C(c2ccc(O[C@H]3CCN(CCCF)C3)cc2)c2ccc(O)cc2SCC1 [Example 165, 4-(4-fluoro-2-methyl-phenyl)-5-[4-[(3S)-1-(3-fluoropropyl)pyrrolidin-3-yl]oxyphenyl]-2,3-dihydro-1-benzothiepin-8-ol]
- IC50 [1]: 8 nM
- IC50 [2]: 11 nM
- DC50 (ERα in MCF7 cells): 0.2 nM
- % Degradation at 3 μM (ERα in MCF7 cells): 90%
- IC50 [3]: 3 nM

SMILES: Oc1ccc2c(c1)SCCC(c1ccc(Cl)cc1F)=C2c1ccc(O[C@H]2CCN(CCCF)C2)cc1 [Example 167, 4-(4-chloro-2-fluoro-phenyl)-5-[4-[(3S)-1-(3-fluoropropyl)pyrrolidin-3-yl]oxyphenyl]-2,3-dihydro-1-benzothiepin-8-ol]
- IC50 [1]: 16 nM
- IC50 [2]: 26 nM
- DC50 (ERα in MCF7 cells): 0.5 nM
- % Degradation at 3 μM (ERα in MCF7 cells): 87%
- IC50 [3]: 5 nM

SMILES: Oc1ccc2c(c1)SCCC(c1cccc(F)c1Cl)=C2c1ccc(O[C@H]2CCN(CCCF)C2)cc1 [Example 168, 4-(2-chloro-3-fluoro-phenyl)-5-[4-[(3S)-1-(3-fluoropropyl)pyrrolidin-3-yl]oxyphenyl]-2,3-dihydro-1-benzothiepin-8-ol]
- IC50 [1]: 9 nM
- IC50 [2]: 14 nM
- DC50 (ERα in MCF7 cells): 0.7 nM
- % Degradation at 3 μM (ERα in MCF7 cells): 86%
- IC50 [3]: 3 nM

SMILES: Oc1ccc(C2=C(c3ccc(O[C@H]4CCN(CCCF)C4)cc3)c3ccc(O)cc3SCC2)c(F)c1 [Example 169, 4-(2-fluoro-4-hydroxy-phenyl)-5-[4-[(3S)-1-(3-fluoropropyl)pyrrolidin-3-yl]oxyphenyl]-2,3-dihydro-1-benzothiepin-8-ol]
- IC50 [1]: 3 nM
- IC50 [2]: 5 nM
- DC50 (ERα in MCF7 cells): 0.2 nM
- % Degradation at 3 μM (ERα in MCF7 cells): 85%
- IC50 [3]: 2 nM

SMILES: Oc1ccc2c(c1)C(c1ccc(O[C@H]3CCN(CCCF)C3)cc1)=C(c1cccc(F)c1Cl)CCS2 [Example 170, 4-(2-chloro-3-fluoro-phenyl)-5-[4-[(3S)-1-(3-fluoropropyl)pyrrolidin-3-yl]oxyphenyl]-2,3-dihydro-1-benzothiepin-7-ol]
- IC50 [1]: 82 nM
- IC50 [2]: 129 nM
- DC50 (ERα in MCF7 cells): 1 nM
- % Degradation at 3 μM (ERα in MCF7 cells): 81%
- IC50 [3]: 18 nM

SMILES: Cc1ccc(C2=C(c3ccc(O[C@H]4CCN(CCCF)C4)cc3)c3cc(O)ccc3SCC2)c(F)c1 [Example 171, 4-(2-fluoro-4-methyl-phenyl)-5-[4-[(3S)-1-(3-fluoropropyl)pyrrolidin-3-yl]oxyphenyl]-2,3-dihydro-1-benzothiepin-7-ol]
- IC50 [1]: 87 nM
- IC50 [2]: 140 nM
- DC50 (ERα in MCF7 cells): 0.2 nM
- % Degradation at 3 μM (ERα in MCF7 cells): 85%
- IC50 [3]: 24 nM

SMILES: Cc1c(Cl)cccc1C1=C(c2ccc(O[C@H]3CCN(CCCF)C3)cc2)c2cc(O)ccc2SCC1 [Example 173, 4-(3-chloro-2-methyl-phenyl)-5-[4-[(3S)-1-(3-fluoropropyl)pyrrolidin-3-yl]oxyphenyl]-2,3-dihydro-1-benzothiepin-7-ol]
- IC50 [1]: 87 nM
- IC50 [2]: 145 nM
- DC50 (ERα in MCF7 cells): 4 nM
- % Degradation at 3 μM (ERα in MCF7 cells): 82%
- IC50 [3]: 21 nM

SMILES: Oc1ccc2c(c1)C(c1ccc(O[C@H]3CCN(CCCF)C3)cc1)=C(c1ccc(F)c(Cl)c1)CCS2 [Example 174, 4-(3-chloro-4-fluoro-phenyl)-5-[4-[(3S)-1-(3-fluoropropyl)pyrrolidin-3-yl]oxyphenyl]-2,3-dihydro-1-benzothiepin-7-ol]
- IC50 [1]: 222 nM
- IC50 [2]: 422 nM
- DC50 (ERα in MCF7 cells): 4 nM
- % Degradation at 3 μM (ERα in MCF7 cells): 81%
- IC50 [3]: 53 nM

SMILES: Oc1ccc2c(c1)C(c1ccc(O[C@H]3CCN(CCCF)C3)cc1)=C(c1ccc(F)cc1Cl)CCS2 [Example 175, 4-(2-chloro-4-fluoro-phenyl)-5-[4-[(3S)-1-(3-fluoropropyl)pyrrolidin-3-yl]oxyphenyl]-2,3-dihydro-1-benzothiepin-7-ol]
- IC50 [1]: 65 nM
- IC50 [2]: 116 nM
- DC50 (ERα in MCF7 cells): 0.3 nM
- % Degradation at 3 μM (ERα in MCF7 cells): 83%
- IC50 [3]: 20 nM

SMILES: Oc1ccc(C2=C(c3ccc(O[C@H]4CCN(CCCF)C4)cc3)c3cc(O)ccc3SCC2)cc1 [Example 177, 5-[4-[(3S)-1-(3-fluoropropyl)pyrrolidin-3-yl]oxyphenyl]-4-(4-hydroxyphenyl)-2,3-dihydro-1-benzothiepin-7-ol]
- IC50 [1]: 29 nM
- IC50 [2]: 41 nM
- DC50 (ERα in MCF7 cells): 0.2 nM
- % Degradation at 3 μM (ERα in MCF7 cells): 75%
- IC50 [3]: 4 nM

SMILES: Cc1cc(C2=C(c3ccc(O[C@H]4CCN(CCCF)C4)cc3)c3cc(O)ccc3SCC2)ccc1Cl [Example 179, 4-(4-chloro-3-methyl-phenyl)-5-[4-[(3S)-1-(3-fluoropropyl)pyrrolidin-3-yl]oxyphenyl]-2,3-dihydro-1-benzothiepin-7-ol]
- IC50 [1]: 80 nM
- IC50 [2]: 114 nM
- DC50 (ERα in MCF7 cells): 4 nM
- % Degradation at 3 μM (ERα in MCF7 cells): 80%
- IC50 [3]: 12 nM

SMILES: Cc1cc(F)ccc1C1=C(c2ccc(O[C@H]3CCN(CCCF)C3)cc2)c2cc(O)ccc2SCC1 [Example 180, 4-(4-fluoro-2-methyl-phenyl)-5-[4-[(3S)-1-(3-fluoropropyl)pyrrolidin-3-yl]oxyphenyl]-2,3-dihydro-1-benzothiepin-7-ol]
- IC50 [1]: 16 nM
- IC50 [2]: 36 nM
- DC50 (ERα in MCF7 cells): 3 nM
- % Degradation at 3 μM (ERα in MCF7 cells): 80%
- IC50 [3]: 7 nM

SMILES: Oc1ccc2c(c1)C(c1ccc(O[C@H]3CCN(CCCF)C3)cc1)=C(c1ccc(Cl)cc1F)CCS2 [Example 181, 4-(4-chloro-2-fluoro-phenyl)-5-[4-[(3S)-1-(3-fluoropropyl)pyrrolidin-3-yl]oxyphenyl]-2,3-dihydro-1-benzothiepin-7-ol]
- IC50 [1]: 54 nM
- IC50 [2]: 135 nM
- DC50 (ERα in MCF7 cells): 3 nM
- % Degradation at 3 μM (ERα in MCF7 cells): 83%
- IC50 [3]: 25 nM

SMILES: O=S1(=O)CCC(c2cccc(O)c2)=C(c2ccc(O[C@H]3CCN(CCCF)C3)cc2)c2ccc(O)cc21 [Example 228, 5-[4-[(3S)-1-(3-fluoropropyl)pyrrolidin-3-yl]oxyphenyl]-4-(3-hydroxyphenyl)-1,1-dioxo-2,3-dihydro-benzothiepin-8-ol]
- IC50 [1]: 38 nM
- IC50 [2]: 73 nM
- DC50 (ERα in MCF7 cells): 0.2 nM
- % Degradation at 3 μM (ERα in MCF7 cells): 87%
- IC50 [3]: 6 nM

SMILES: O=S1(=O)CCC(c2ccc(F)cc2Cl)=C(c2ccc(O[C@H]3CCN(CCCF)C3)cc2)c2ccc(O)cc21 [Example 229, 4-(2-chloro-4-fluoro-phenyl)-5-[4-[(3S)-1-(3-fluoropropyl)pyrrolidin-3-yl]oxyphenyl]-1,1-dioxo-2,3-dihydro-1λ^6-benzothiepin-8-ol]
- IC50 [1]: 34 nM
- IC50 [2]: 85 nM
- DC50 (ERα in MCF7 cells): 0.2 nM
- % Degradation at 3 μM (ERα in MCF7 cells): 89%
- IC50 [3]: 12 nM

SMILES: Cc1ccc(C2=C(c3ccc(O[C@H]4CCN(CCCF)C4)cc3)c3ccc(O)cc3S(=O)(=O)CC2)c(F)c1 [Example 230, 4-(2-fluoro-4-methyl-phenyl)-5-[4-[(3S)-1-(3-fluoropropyl)pyrrolidin-3-yl]oxyphenyl]-1,1-dioxo-2,3-dihydro-1λ^6-benzothiepin-8-ol]
- IC50 [1]: 41 nM
- IC50 [2]: 99 nM
- DC50 (ERα in MCF7 cells): 0.8 nM
- % Degradation at 3 μM (ERα in MCF7 cells): 93%
- IC50 [3]: 14 nM
